Assay results from the supplement of paper PMC10307832.

How the values were obtained:
Experiment in all cases: relative viability (nuclei count vs DMSO), 5 days (fraction); higher = more cells survive
Crenolanib + Foretinib = compound: CC1(COc2ccc3c(c2)ncn3-c2ccc3cccc(N4CCC(N)CC4)c3n2)COC1 [Crenolanib] + COc1cc2c(Oc3ccc(NC(=O)C4(C(=O)Nc5ccc(F)cc5)CC4)cc3F)ccnc2cc1OCCCN1CCOCC1 [Foretinib] (partner 0.25 µM)
Method in brief: (§1)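 One day after seeding in 1536-well plates, lung cancer cell lines were dosed by pin tool. Dosing was either single-drug or a fixed anchor-drug dose plus five library-drug doses (not always all listed) in √10 steps. After 5 days, nuclei were stained in one fix-and-stain step and counted on 4× images, and relative viability is the nuclei count of treated wells over that of vehicle wells, given as the median of duplicate plates.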

Tivantinib + OSI-027 = compound: O=C1NC(=O)[C@@H](c2cn3c4c(cccc24)CCC3)[C@@H]1c1c[nH]c2ccccc12 [Tivantinib] + COc1cccc2cc(-c3nc([C@H]4CC[C@H](C(=O)O)CC4)n4ncnc(N)c34)[nH]c12 [OSI-027] (partner 0.5 µM)
Method in brief: as §1

Tivantinib + Lapatinib = compound: O=C1NC(=O)[C@@H](c2cn3c4c(cccc24)CCC3)[C@@H]1c1c[nH]c2ccccc12 [Tivantinib] + CS(=O)(=O)CCNCc1ccc(-c2ccc3ncnc(Nc4ccc(OCc5cccc(F)c5)c(Cl)c4)c3c2)o1 [Lapatinib] (partner 2 µM)
Method in brief: as §1

Tivantinib + Pemetrexed = compound: O=C1NC(=O)[C@@H](c2cn3c4c(cccc24)CCC3)[C@@H]1c1c[nH]c2ccccc12 [Tivantinib] + Nc1nc2[nH]cc(CCc3ccc(C(=O)N[C@@H](CCC(=O)O)C(=O)O)cc3)c2c(=O)[nH]1 [Pemetrexed] (partner 0.2 µM)
Method in brief: as §1

| Cell Line | relative viability (Crenolanib + Foretinib; first compound 0.01 µM) | relative viability (Crenolanib + Foretinib; first compound 0.03162 µM) | relative viability (Crenolanib + Foretinib; first compound 0.1 µM) | relative viability (Crenolanib + Foretinib; first compound 0.3162 µM) | relative viability (Crenolanib + Foretinib; first compound 1 µM) | relative viability (Tivantinib + OSI-027; first compound 0.01 µM) | relative viability (Tivantinib + OSI-027; first compound 0.03162 µM) | relative viability (Tivantinib + OSI-027; first compound 0.1 µM) | relative viability (Tivantinib + OSI-027; first compound 0.3162 µM) | relative viability (Tivantinib + Lapatinib; first compound 0.01 µM) | relative viability (Tivantinib + Lapatinib; first compound 0.03162 µM) | relative viability (Tivantinib + Lapatinib; first compound 0.1 µM) | relative viability (Tivantinib + Lapatinib; first compound 0.3162 µM) | relative viability (Tivantinib + Pemetrexed; first compound 0.01 µM) | relative viability (Tivantinib + Pemetrexed; first compound 0.03162 µM) | relative viability (Tivantinib + Pemetrexed; first compound 0.1 µM) | relative viability (Tivantinib + Pemetrexed; first compound 0.3162 µM) |
| --- | --- | --- | --- | --- | --- | --- | --- | --- | --- | --- | --- | --- | --- | --- | --- | --- | --- |
| 201T | 1.19 | 1.1 | 1.03 | 1.12 | 1.06 | 0.962 | 0.718 | 0.665 | 0.74 | 1.08 | 1.01 | 1.04 | 1.14 | 0.328 | 0.281 | 0.357 | 0.319 |
| A549 | 0.996 | 0.894 | 0.891 | 1.04 | 1.01 |  |  |  |  | 1 | 1.02 | 0.911 | 0.935 |  |  |  |  |
| A-427 | 1.05 | 0.969 | 1.14 | 1.1 | 1.09 | 0.556 | 0.413 | 0.487 | 0.456 | 1 | 1.12 | 0.989 | 1.12 | 1.01 | 1.06 | 0.99 | 0.961 |
| ABC-1 | 1.43 | 0.889 | 1.13 | 1.12 | 1.46 | 0.586 | 0.422 | 0.538 | 0.603 |  | 1.13 | 1.17 | 0.869 |  |  |  |  |
| BEN | 0.84 | 0.44 | 0.659 | 0.819 | 0.656 | 0.323 | 0.269 | 0.278 | 0.339 | 0.623 | 0.617 | 0.591 | 0.691 | 0.724 | 0.71 | 0.636 | 0.684 |
| CAL-12T | 1.15 | 1.05 | 1.18 | 1.33 | 1.22 | 0.791 | 0.541 | 0.634 | 0.256 | 0.723 | 0.62 | 0.644 | 0.424 | 1.11 | 1.3 | 1.18 | 1.21 |
| COR-L23 | 1 | 0.958 | 0.925 | 0.991 | 0.927 | 0.783 | 0.7 | 0.787 | 0.919 | 1.12 | 0.975 | 0.894 | 0.922 | 0.194 | 0.195 | 0.204 | 0.195 |
| COR-L 105 | 0.972 | 1.18 | 0.848 | 1.32 | 1.05 | 0.838 | 0.378 | 0.581 | 0.363 | 0.412 | 0.359 | 0.29 | 0.359 | 1.02 | 1.05 | 1.08 | 0.696 |
| Calu-6 | 0.881 | 0.774 | 0.828 | 0.956 | 0.976 |  |  |  |  | 1.08 | 1.02 | 1.02 | 0.965 |  |  |  |  |
| ChaGo-K-1 | 0.952 | 0.942 | 0.922 | 0.894 | 0.84 | 0.662 | 0.482 | 0.607 | 0.549 |  |  |  |  | 0.264 | 0.254 | 0.264 | 0.251 |
| EBC-1 | 0.102 | 0.104 | 0.0945 | 0.106 | 0.115 |  |  |  |  | 0.205 | 0.248 | 0.194 | 0.201 |  |  |  |  |
| EKVX | 1 | 0.71 | 0.802 | 0.796 | 0.757 | 0.711 | 0.663 | 0.679 |  | 0.194 | 0.225 | 0.225 | 0.176 | 0.344 | 0.413 | 0.425 | 0.203 |
| EMC-BAC-2 | 1.05 | 0.997 | 1.03 | 1.11 | 1.07 | 0.366 | 0.3 | 0.347 | 0.357 | 1 | 0.852 | 0.867 | 0.881 | 0.457 | 0.448 | 0.475 | 0.479 |
| EPLC-272H | 0.792 | 0.588 | 0.643 | 0.64 | 0.797 | 0.319 | 0.32 | 0.293 | 0.147 | 1.08 | 0.711 | 0.846 | 0.383 | 0.408 | 0.356 | 0.344 | 0.182 |
| H3255 | 0.935 | 0.851 | 0.84 | 0.877 | 1.06 | 0.711 | 0.551 | 0.571 |  | 0.275 | 0.234 | 0.294 |  | 0.554 | 0.586 | 0.598 |  |
| HARA | 0.956 | 0.979 | 0.84 | 0.912 | 0.911 | 0.583 | 0.359 | 0.509 | 0.26 | 0.888 | 0.651 | 0.636 | 0.82 | 0.279 | 0.252 | 0.263 | 0.24 |
| HCC-15 | 1.08 | 1.07 | 0.989 | 1.01 | 0.853 | 0.76 | 0.53 | 0.614 | 0.7 | 0.815 | 0.846 | 0.873 | 0.829 | 0.215 | 0.221 | 0.227 | 0.224 |
| HCC-44 |  |  |  |  |  | 0.488 | 0.534 | 0.441 | 0.669 | 1.02 | 1.04 | 0.998 | 1 | 0.62 | 0.654 | 0.616 | 0.664 |
| HCC-78 | 0.584 | 0.59 |  | 0.545 | 0.525 | 0.36 | 0.37 | 0.367 | 0.32 | 0.477 | 0.786 | 0.647 | 0.456 | 0.893 | 0.878 | 0.933 | 0.879 |
| HCC-366 | 0.918 | 0.954 | 0.956 | 0.942 | 0.938 | 0.941 | 0.807 | 0.848 | 0.934 | 0.89 | 1.03 | 0.99 | 1.03 | 0.163 | 0.145 | 0.148 | 0.149 |
| HCC-827 | 1.08 | 1.04 | 1.04 | 1.1 | 0.998 | 0.764 | 0.844 | 0.708 | 0.253 | 0.213 | 0.211 | 0.176 | 0.165 | 0.251 | 0.257 | 0.272 |  |
